# Read-outs that look alike come from different tables or passages of the source.
# Key:
# Caco-2 cells = assay: Caco2 assay (Papp A-B); format: in vitro ADME; settings: test compound 50 μM, 120 min, 37° C.
# Procedure: Caco-2 cells are grown at 37° C. in an atmosphere of 5% CO2 in DMEM growth medium supplemented with 10% (v/v) fetal bovine serum, 1% (v/v) nonessential amino acids, penicillin (100 U/mL), and streptomycin (100 μg/mL). Confluent cell monolayers are subcultured every 7 days or 4 days for Caco-2 by treatment with 0.05% trypsin containing […]. Caco-2 cells are seeded in 96-well Transwell plates. The seeding density for Caco-2 cells is 14,000 cells/well. DMEM growth medium is replaced every other day after seeding. Cell monolayers are used for transport assays between 22 and 25 days for Caco-2 cells.
# Cell culture medium is removed and replaced with HBSS. To measure the TEER, the HBSS is added into the donor compartment (apical side) and receiver compartment (basolateral side). The TEER is measured by using a REMS Autosampler to ensure the integrity of the cell monolayers. Caco-2 cell monolayers with TEER values 300 Ω·cm^2 are used for transport experiments. To determine the Papp in the absorptive direction (A-B), solution of test compound (50 μM) in HBSS is added to the donor compartment (apical side), while HBSS solution with 4% BSA is added to the receiver compartment (basolateral side). The apical volume was 0.075 mL, and the basolateral volume is 0.25 mL. The incubation period is 120 min. at 37° C. in an atmosphere of 5% CO2. At the end of the incubation period, samples from the donor and receiver sides are removed and an equal volume of MeCN is added for protein precipitation. The supernatants are collected after centrifugation (3000 rpm, Allegra X-14R Centrifuge from Beckman Coulter, Indianapolis, IN) for LCMS analysis. The permeability value is determined according to the equation:
# [formula] • where the flux rate (F, mass/time) is calculated from the slope of cumulative amounts of compound of interest on the receiver side, SA is the surface area of the cell membrane, VD is the donor volume, and MD is the initial amount of the solution in the donor chamber.
# The symbol “+” indicates a Caco-2 value of ≤0.5, “++” indicates a Caco-2 value of >0.5 but ≤1; and “+++” indicates a Caco-2 value of >1. “NA” indicates IC50 not available.
# KRAS G12V = KRAS G12V (Homo sapiens, UniProt P01116, G12V); assay: GDP-GTP exchange assay (bodipy-GDP/GppNHp, SOS1), KRAS G12V; format: biochemical
# Sequence of KRAS G12V (P01116 1-188 isoform P01116-2 G12V): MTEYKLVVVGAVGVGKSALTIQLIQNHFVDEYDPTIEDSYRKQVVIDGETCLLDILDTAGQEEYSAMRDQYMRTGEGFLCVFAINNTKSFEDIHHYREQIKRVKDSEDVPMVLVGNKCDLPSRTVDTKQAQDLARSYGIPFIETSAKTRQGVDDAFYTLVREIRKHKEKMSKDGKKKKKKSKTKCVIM
# KRAS G12D = KRAS G12D (Homo sapiens, UniProt P01116, G12D); assay: GDP-GTP exchange assay (bodipy-GDP/GppNHp, SOS1), KRAS G12D; format: biochemical
# Sequence of KRAS G12D (P01116 1-188 isoform P01116-2 G12D): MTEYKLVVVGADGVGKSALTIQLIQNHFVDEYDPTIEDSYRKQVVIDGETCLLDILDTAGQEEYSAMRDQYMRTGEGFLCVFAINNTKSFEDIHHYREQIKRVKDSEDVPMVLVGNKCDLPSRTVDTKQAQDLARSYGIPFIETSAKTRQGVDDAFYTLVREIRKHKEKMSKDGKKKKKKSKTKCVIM
# [1] = Table H, column G12V, for compounds isolated as several atropisomers/diastereoisomers the value for the most potent isomer is quoted, read-out: KRAS G12V exchange assay IC50
# [2] = Table H, column G12D, for compounds isolated as several atropisomers/diastereoisomers the value for the most potent isomer is quoted, read-out: KRAS G12D exchange assay IC50
Structure (SMILES),Caco-2 (Caco-2 cells),IC50 (KRAS G12V; [1]),IC50 (KRAS G12D; [2]),"IC50 (KRAS G12V; KRAS G12V mutant, value for the most potent isomer quoted for certain compounds, read-out: G12V (KRAS G12V exchange assay IC50))","IC50 (KRAS G12D; bodipy-loaded KRAS G12D 2.5 nM, 4 h pre-incubation, value for the most potent isomer quoted for certain compounds, read-out: G12D (KRAS G12D exchange assay IC50))"
"COc1cc(O[C@H]2C[C@H](c3cc4c(C)nc5c(F)c(-c6cccc(Cl)c6Cl)c(CCC#N)cc5c4n3[C@H]3[C@H]4CN[C@@H]3C4)N(C(=O)C3CC3)[C@@H]2C)ccn1 [Example 41, 3-(1-((1R,4R,5S)-2-Azabicyclo[2.1.1]hexan-5-yl)-2-((2R,4S,5R)-1-(cyclopropanecarbonyl)-4-((2-methoxypyridin-4-yl)oxy)-5-methylpyrrolidin-2-yl)-7-(2,3-dichlorophenyl)-6-fluoro-4-methyl-1H-pyrrolo[3,2-c]quinolin-8-yl)propanenitrile]",++ (a Caco-2 value of >0.5 but ≤1),≤ 100 nM,≤ 100 nM,,
Cc1nc2c(F)c(-c3cccc(Cl)c3Cl)c(CCC#N)cc2c2c1cc([C@H]1C[C@H](OCc3noc4ccccc34)CN1C(=O)C1CC1)n2[C@H]1[C@H]2CN[C@@H]1C2 [Example 6],+ (a Caco-2 value of ≤0.5),≤ 100 nM,≤ 100 nM,,
CC(O)c1nc2c(F)c(-c3cccc(Cl)c3Cl)c(CCC#N)cc2c2c1cc([C@H]1C[C@H](OCc3c(F)cccc3F)CN1C(=O)C1CC1)n2[C@H]1[C@H]2CN[C@@H]1C2 (stereo partly drawn) [Example 34],+ (a Caco-2 value of ≤0.5),≤ 100 nM,≤ 100 nM,,
Cc1nc2c(F)c(-c3cccc(Cl)c3Cl)c(CCC#N)cc2c2c1cc([C@H]1C[C@H](OC3CCC(C#N)C3)CN1C(=O)C1CC1)n2[C@H]1[C@H]2CN[C@@H]1C2 (stereo partly drawn) [Example 24],+ (a Caco-2 value of ≤0.5),≤ 100 nM,≤ 100 nM,,
"C[C@@H]1[C@@H](Oc2cc(F)ccn2)C[C@H](c2cc3c([C@@H](C)O)nc4c(F)c(-c5cccc(Cl)c5Cl)c(CCC#N)cc4c3n2[C@H]2[C@H]3CN[C@@H]2C3)N1C(=O)C1CC1 [Example 63, 3-(1-((1R,4R,5S)-2-Azabicyclo[2.1.1]hexan-5-yl)-2-((2R,4S,5R)-1-(cyclopropanecarbonyl)-4-((4-fluoropyridin-2-yl)oxy)-5-methylpyrrolidin-2-yl)-7-(2,3-dichlorophenyl)-6-fluoro-4-((R)-1-hydroxyethyl)-1H-pyrrolo[3,2-c]quinolin-8-yl)propanenitrile]",++ (a Caco-2 value of >0.5 but ≤1),≤ 100 nM,≤ 100 nM,,
"Cc1nc2c(F)c(-c3cccc(Cl)c3Cl)c(CCC#N)cc2c2c1cc([C@H]1C[C@H](Oc3cc(F)ccn3)CN1C(=O)C1CC1)n2[C@H]1[C@H]2CN[C@@H]1C2 [Example 56, 3-(1-((1R,4R,5S)-2-Azabicyclo[2.1.1]hexan-5-yl)-2-((2R,4S)-1-(cyclopropanecarbonyl)-4-((4-fluoropyridin-2-yl)oxy)pyrrolidin-2-yl)-7-(2,3-dichlorophenyl)-6-fluoro-4-methyl-1H-pyrrolo[3,2-c]quinolin-8-yl)propanenitrile]",+++ (a Caco-2 value of >1),≤ 100 nM,≤ 100 nM,,
"Cc1nc2c(F)c(-c3cccc(Cl)c3Cl)c(CCC#N)cc2c2c1cc([C@H]1C[C@H](n3nncc3C3CCCC3)CN1C(=O)C1CC1)n2[C@H]1[C@H]2CN[C@@H]1C2 [Example 71, 3-(1-((1R,4R,5S)-2-Azabicyclo[2.1.1]hexan-5-yl)-2-((2R,4S)-4-(5-cyclopentyl-1H-1,2,3-triazol-1-yl)-1-(cyclopropanecarbonyl)pyrrolidin-2-yl)-7-(2,3-dichlorophenyl)-6-fluoro-4-methyl-1H-pyrrolo[3,2-c]quinolin-8-yl)propanenitrile]",+ (a Caco-2 value of ≤0.5),≤ 100 nM,≤ 100 nM,,
"C[C@@H](O)c1nc2c(F)c(-c3cccc(Cl)c3Cl)c(CCC#N)cc2c2c1cc([C@H]1C[C@H](Oc3nccs3)CN1C(=O)C1CC1)n2[C@H]1[C@H]2CN[C@@H]1C2 [Example 54, 3-(1-((1R,4R,5S)-2-Azabicyclo[2.1.1]hexan-5-yl)-2-((2R,4S)-1-(cyclopropanecarbonyl)-4-(thiazol-2-yloxy)pyrrolidin-2-yl)-7-(2,3-dichlorophenyl)-6-fluoro-4-((R)-1-hydroxyethyl)-1H-pyrrolo[3,2-c]quinolin-8-yl)propanenitrile]",+ (a Caco-2 value of ≤0.5),≤ 100 nM,≤ 100 nM,,
"COc1nccc(O[C@H]2C[C@H](c3cc4c(C)nc5c(F)c(-c6cccc(Cl)c6Cl)c(CCC#N)cc5c4n3[C@H]3[C@H]4CN[C@@H]3C4)N(C(=O)C3CC3)C2)n1 [Example 42, 3-(1-((1R,4R,5S)-2-Azabicyclo[2.1.1]hexan-5-yl)-2-((2R,4S)-1-(cyclopropanecarbonyl)-4-((2-methoxypyrimidin-4-yl)oxy)pyrrolidin-2-yl)-7-(2,3-dichlorophenyl)-6-fluoro-4-methyl-1H-pyrrolo[3,2-c]quinolin-8-yl)propanenitrile]",+ (a Caco-2 value of ≤0.5),≤ 100 nM,≤ 100 nM,,
"COc1ncccc1O[C@H]1C[C@H](c2cc3c(C)nc4c(F)c(-c5cccc(Cl)c5Cl)c(CCC#N)cc4c3n2[C@H]2[C@H]3CN[C@@H]2C3)N(C(=O)C2CC2)[C@@H]1C [Example 49, 3-(1-((1R,4R,5S)-2-Azabicyclo[2.1.1]hexan-5-yl)-2-((2R,4S,5R)-1-(cyclopropanecarbonyl)-4-((2-methoxypyridin-3-yl)oxy)-5-methylpyrrolidin-2-yl)-7-(2,3-dichlorophenyl)-6-fluoro-4-methyl-1H-pyrrolo[3,2-c]quinolin-8-yl)propanenitrile]",+++ (a Caco-2 value of >1),≤ 100 nM,≤ 100 nM,,
COC[C@@H]1[C@@H](Oc2cc(OC)ncc2F)C[C@H](c2cc3c([C@@H](C)O)nc4c(F)c(-c5cccc(Cl)c5Cl)c(CCC#N)cc4c3n2[C@H]2[C@H]3CN[C@@H]2C3)N1C(=O)C1CC1 [Example 83],++ (a Caco-2 value of >0.5 but ≤1),,,≤ 100 nM,≤ 100 nM
COC1CCC(O[C@H]2C[C@H](c3cc4c(C)nc5c(F)c(-c6cccc(Cl)c6Cl)c(CCC#N)cc5c4n3[C@H]3[C@H]4CN[C@@H]3C4)N(C(=O)C3CC3)C2)C1 (stereo partly drawn) [Example 23],++ (a Caco-2 value of >0.5 but ≤1),≤ 100 nM,≤ 100 nM,,
"Cc1nc2c(F)c(-c3cccc(Cl)c3Cl)c(CCC#N)cc2c2c1cc([C@H]1C[C@H](Oc3cccc(N4CC(F)C4)n3)CN1C(=O)C1CC1)n2[C@H]1[C@H]2CN[C@@H]1C2 [Example 65, 3-(1-((1R,4R,5S)-2-Azabicyclo[2.1.1]hexan-5-yl)-2-((2R,4S)-1-(cyclopropanecarbonyl)-4-((6-(3-fluoroazetidin-1-yl)pyridin-2-yl)oxy)pyrrolidin-2-yl)-7-(2,3-dichlorophenyl)-6-fluoro-4-methyl-1H-pyrrolo[3,2-c]quinolin-8-yl)propanenitrile]",+ (a Caco-2 value of ≤0.5),≤ 100 nM,≤ 100 nM,,
"Cc1nc2c(F)c(-c3cccc(Cl)c3Cl)c(CCC#N)cc2c2c1cc([C@H]1C[C@H](Oc3ncccc3F)CN1C(=O)C1CC1)n2[C@H]1[C@H]2CN[C@@H]1C2 [Example 58, 3-(1-((1R,4R,5S)-2-Azabicyclo[2.1.1]hexan-5-yl)-2-((2R,4S)-1-(cyclopropanecarbonyl)-4-((3-fluoropyridin-2-yl)oxy)pyrrolidin-2-yl)-7-(2,3-dichlorophenyl)-6-fluoro-4-methyl-1H-pyrrolo[3,2-c]quinolin-8-yl)propanenitrile]",+++ (a Caco-2 value of >1),≤ 100 nM,≤ 100 nM,,

# Source: patent publication US20240390340A1 (INCYTE CORPORATION, priority 2023, published 2024)
